Data from patent publication US20220023386A1, “METHOD FOR THE TREATMENT OR PREVENTION OF OSTEOARTHRITIS” (Chondropeptix B.V., priority 2016, published 2022).

Assays:
[1] = tested on: Isolated chondrocytes from OA patients; assay: Treatment of isolated chondrocytes from OA patients, gene expression via qRT-PCR; type: cell-based, human; details: 1 nM, 24 h, n=6
Description: Isolated chondrocytes from OA patients (n=6) were treated with BMP-7 (1 nM) or the 12-mer peptide according to SEQ ID NO: 16 (1 nM) for 24 h. Pro-chondrogenic (FIG. 9A) and hypertrophic (FIGS. 9B, 9C and 9D) gene expression was determined via qRT-PCR and normalized for 28S rRNA levels.

[2] = tested on: cartilage explants from OA patient's knee articular cartilage; assay: Treatment of cartilage explants, hypertrophic gene expression via qRT-PCR; type: cell-based, human; details: BMP-7 1 nM, SEQ ID NO: 16 10 nM, 24 h
Description: 4 mm2 cartilage explants were taken from non-lesion areas of OA patient's knee articular cartilage (n=5) and randomly assigned to different experimental treatment conditions (4 explants per treatment group). After a 24 h equilibration period the explants were treated with BMP-7 (1 nM) or the 12-mer peptide according to SEQ ID NO: 16 (10 nM) for 24 h. Hypertrophic gene expression was determined via qRT-PCR and normalized for 28S rRNA levels. After treatment with BMP-7 or the 12 mer we observed a downregulation of pro-hypertrophic genes, such as Col10a1 (FIG. 10A) and MMP13 (FIG. 10B).

Cartilage explants = assay: Safranin-O staining of glycosaminoglycans in cartilage explants; type: cell-based, human; details: 14 days; BMP-7 1 nM, SEQ ID NO: 8 10 nM; 2 patients
Description: Cartilage explants obtained from 2 patients were cultured for 14 days in the presence of BMP-7 (1 nM) or BMP-7 mimicking peptide […] (SEQ ID NO: 8) at 10 nM. Glycosaminoglycans (GAGs), an important component of the extracellular matrix (ECM), were stained with Safranin-O (in red) and other tissues are counterstained with Fast green (in green/blue).

[3] = tested on: Cartilage explants from OA patient's knee cartilage; assay: PGE2 levels via ELISA in cartilage explants; type: cell-based, human; details: 14 days; BMP-7 1 nM, peptides 10 nM
Description: Cartilage explants of 3 mm^2 were taken from OA patient's knee cartilage (n=6) and treated with BMP-7 (1 nM), with peptide […] (SEQ ID NO: 8) at 10 nM or a scrambled irrelevant control peptide (10 nM) for 14 days. Prostaglandin E2 (PGE2) levels, a pro-hypertrophic factor, were determined via an ELISA.

[4] = tested on: Synovial tissue, Hoffa's fat pad tissue and meniscus tissue samples from OA patients; assay: PGE2 levels via ELISA in synovial, Hoffa's fat pad and meniscus tissue samples; type: cell-based, human; details: 24 h; BMP-7 1 nM, peptides 10 nM
Description: Synovial tissue samples from OA patients (n=6) were treated with BMP-7 (1 nM), with peptide […] (SEQ ID NO: 8) at 10 nM or a scrambled irrelevant control peptide (10 nM) for 24 h. PGE2 levels were determined via an ELISA.
Hoffa's fat pad tissue samples from OA patients (n=6) were treated with BMP-7 (1 nM) with peptide […] (SEQ ID NO: 8) at 10 nM or a scrambled irrelevant control peptide (10 nM) for 24 h. PGE2 levels were determined via an ELISA.
Meniscus tissue samples from OA patients (n=6) were treated with BMP-7 (1 nM) with peptide […] (SEQ ID NO: 8) at 10 nM or a scrambled irrelevant control peptide (10 nM) for 24 h. PGE2 levels were determined via an ELISA.

[5] = tested on: OA articular chondrocytes; assay: Expression of OA chondrocyte phenotype marker genes by RT-qPCR after peptide exposure; type: cell-based, human; details: independent of the tested concentration (1000, 100, 10 and 1 nM were tested)
[6] = tested on: OA articular chondrocytes; assay: as above; type: cell-based, human; set-up: key: [—] denotes the absence of a significant effect or a significantly decreased expression of chondrogenic marker BAPX1/NKX3.2 or an increased expression of OA chondrocyte phenotypic markers ALP, MMP13, ADAMTS5, COX2, COL10A and RUNX2 in OA articular chondrocytes, in comparison to untreated OA articular chondrocyts; details: Table 1, 20-mer peptides with native cysteines; vs untreated OA articular chondrocytes
Description: The action of 20-mer peptides (10 nM) of SEQ ID NO: 2-15 (peptides with 1 amino acids intervals (19 amino acid overlap)) and SEQ ID NO:49 on the expression of the indicated genes was determined on a validated pool of passage 2 OA human articular chondrocytes (n=18) and compared to full-length recombinant BMP-7 (1 nM). Samples were harvested after 24 hours and analyzed for indicated genes by RT-qPCR (corrected for 28S rRNA expression and relative to control conditions (no peptide exposure)). In the graphs, numbers on the x-axis represent individual peptides according to their SEQ ID NO:, error bars represent mean±SEM, statistical differences were calculated (one-way ANOVA with bonferroni correction) to control condition. *=p<0.05 lower than control condition for COL10A1, ALP, RUNX2, COX-2, MMP13 and ADAMTS5 and higher than control condition for BAPX1/NKX3.2. Random peptide is a peptide according to SEQ ID NO: 49 with amino acid sequence […].

[7] = tested on: OA articular chondrocytes; assay: as above; type: cell-based, human; set-up: key: [—] denotes the absence of a significant effect or a significantly decreased expression of chondrogenic marker BAPX1/NKX3.2 or an increased expression of OA chondrocyte phenotypic markers ALP, MMP13, ADAMTS5, COX2, COL10A and RUNX2 in OA articular chondrocytes, in comparison to untreated OA articular chondrocyts; details: Table 1, 20-mer peptides with native cysteines; vs untreated OA articular chondrocytes; remark: listed apart in the source
[8] = tested on: Osteoarthritic chondrocytes; assay: BMP-7 rescue of OA-associated chondrocyte phenotype (FIG. 1); type: cell-based
Description: Osteoarthritic chondrocytes display a typical phenotype that is characterized by decreased expression of SOX9, COL2A1, ACAN and BAPX1/NKX3.2 and an increased expression of RUNX2, COL10A1, ALP, MMP13, ADAMTSS, COX-2 and IL-6 mRNAs (see left panel).
Functional ALP enzyme activity in cell lysates and PGE2 secretion in the culture medium was also normalized upon BMP-7 treatment of OA chondrocytes (right panel).
Expression of indicated mRNAs was determined by RT-qPCR, relatively to control conditions (normalized for 28S rRNA expression). In graphs, error bars represent mean±SEM, statistical differences were calculated as compared to healthy condition. *=p<0.05.

OA = details: intra-articular administration, rats; cited from earlier work
OA patients = details: intra-articular injection, phase-1; cited from earlier work
[9] = BMP-7 treatment of OA chondrocytes

Row | Molecule | COL10A1 gene expression (pro-hypertrophic) [1] | COX-2 gene expression (pro-hypertrophic) [1] | Col2a1 gene expression (pro-chondrogenic) [1] | RUNX2 gene expression (pro-hypertrophic) [1] | Col10a1 gene expression [2] | MMP13 gene expression [2] | Safranin-O intensity (GAGs) compared to control (Cartilage explants) | PGE2 levels in the cartilage [3] | PGE2 levels in the surrounding tissues (synovial, Hoffa's fat pad, meniscus) [4] | ADAMTS5 expression [6] | ALP expression [7] | BAPX1/NKX3.2 expression [7] | COL10A expression [7] | COX-2 expression [7] | MMP13 expression [7] | RUNX2 expression [7] | other results
1 | YSEGESAFPLNS (homo sapiens) [SEQ ID NO: 16] | downregulation | downregulation | upregulation | downregulation | downregulation | downregulation |  |  |  |  |  |  |  |  |  |  | 
2 | GYAAYYSEGESAFPLNSYMN (homo sapiens) [SEQ ID NO: 8] |  |  |  |  |  |  | increased Safranin-O intensity | reduce PGE2 levels | reduce PGE2 levels |  |  |  |  |  |  |  | suppression of the OA chondrocyte phenotype [5]: efficiently suppressed
3 | 39 (ACKKHELYVSFRDLGWQDWI; homo sapiens) [compound 39] |  |  |  |  |  |  |  |  |  | — | — | — | — | — | — | — | 
4 | 40 (WIIAPEGYAAYYCEGECAFP; homo sapiens) [compound 40] |  |  |  |  |  |  |  |  |  | — | — | — | — | — | — | — | 
5 | bone morphogenetic protein-7 (protein, homo sapiens, full-length recombinant human BMP-7, mature polypeptide of 139 amino acids) STGSKQRSQNRSKTPKNQEALRMANVAENSSSDQRQACKKHELYVSFRDLGWQDWIIAPEGYAAYYCEGECAFPLNSYMNATNHAIVQTLVHFINPETVPKPCCAPTQLNAISVLYFDDSSNVILKKYRNMVVRACGCH | downregulation | downregulation | upregulation | downregulation | downregulation | downregulation | increased Safranin-O intensity | reduce PGE2 levels | reduce PGE2 levels |  |  |  |  |  |  |  | concentration at which OA chondrocyte-phenotype suppressive action is most pronounced [8]: around 1 nM; OA-associated chondrocyte phenotype (expression of SOX9, COL2A1, ACAN, BAPX1/NKX3.2, RUNX2, COL10A1, ALP, MMP13, ADAMTS5, COX-2, IL-6 mRNAs) ([8]; BMP-7 1 nM): able to rescue; effects on the chondrocyte phenotype at high concentration ([8]; BMP-7 concentrations higher than 1 nM (eg 10 nM or 100 nM)): opposite and negative effects; Functional ALP enzyme activity in cell lysates [8, 9]: normalized; PGE2 secretion in the culture medium [8, 9]: normalized; OA development and progression (OA): protects against OA development and delays progression of OA; adverse events (OA patients): no serious adverse events
